PubChem BioAssay (NCI)
Values joined by “and” are separate entries in the source; they are usually repeats but may differ in a detail not shown here. Identical values can stand only once.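 Interpolation was linear, between the two tested concentrations surrounding the appropriate level; five concentrations were tested over 48 hours in 96-well plates. GI50 = concentration required for 50% inhibition of growth. Definition used: TGI = concentration required for complete inhibition of growth.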

Test system: RPMI-8226 leukemia
Test: NCI-60 cell line screen, 48 h

SMILES | TGI | GI50
CN/N=C(/Cc1occc(=O)c1O)C(=O)Nc1ccccc1C | > 100 µM | 
Cc1coc2c1CC1(C)C(CCC(O)C1C)C2 (configuration not stated) | > 100 µM | 
COc1ccc2c(c1)/C(=C/c1c(C)nc3sc(C)nn13)C(=O)N2 | > 100 µM | 4.17 µM
Cc1cc(I)cc(CN(C)CCCCN2CCCCC2)c1O | 25.5 µM | 8.68 µM
Cc1ccc(C(=O)/C(=C/c2ccc([N+](=O)[O-])cc2)SCc2ccc(Cl)cc2)cc1 | 0.696 µM | 0.24 µM
O=C(Nc1ccc(Cl)c(Cl)c1)Nc1ccc(Cl)c(Cl)c1 | 6.99 µM and 5.33 µM | 1.79 µM and 0.997 µM
C#Cc1ccc(-n2c(/C=C/c3ccc(C(F)(F)F)cc3)nc3ncccc3c2=O)cc1 | 6.28 µM | 1.39 µM
COc1cc(/C=N/NC(=O)c2ccc(C(F)(F)F)nc2Nc2ccc(Cl)cc2C)ccc1O | 6.1 µM | 2.11 µM
O=C(N/C(=C\c1ccc(/C=C(\NC(=O)c2ccccc2)c2nc3cc([N+](=O)[O-])ccc3[nH]2)cc1)c1nc2cc([N+](=O)[O-])ccc2[nH]1)c1ccccc1 | > 100 µM | 
COc1ccc(C(=O)Cn2c(C(=O)c3ccccc3)nc(-c3ccc(OC)cc3)c2-c2ccc(OC)cc2)cc1 | > 100 µM | > 100 µM
O=C1c2ccccc2C2C1N2C(=O)C(F)(F)F (configuration not stated) | > 100 µM | 
CC1=C(C(=O)NCc2ccccc2)C(/C=C/c2ccccc2)C(C(=O)NCc2ccccc2)=C(C)N1 | > 100 µM | 
CSc1nc2c(c(=O)[nH]1)N=C1c3ccccc3C(=O)C1C(c1ccccc1)N2 (configuration not stated) | > 100 µM | 3.01 µM
CCOC(=O)[C@]1(OC(C)=O)C[C@H](OC(C)=O)[C@@H](C(F)COP(=O)(OCc2ccccc2)OCc2ccccc2)O1 (some centres not stated) | 46.5 µM and 82.5 µM | 

Test system: HCT-116 colon
Test: NCI-60 cell line screen, 48 h

SMILES | TGI | GI50
COC1CCC2C(NS(=O)(=O)c3ccc(C)cc3)CCCC2O1 (configuration not stated) (tested in a mixture with another compound) | 15.8 µM | 
O=C1/C(=C/c2cccc([N+](=O)[O-])c2)COc2ccc(O)cc21 | 2.82 µM | 1.19 µM
CCCCC(=O)OCC(=O)[C@]1(O)Cc2c(O)c3c(c(O)c2[C@@H](OC2CC(NC(=O)C(F)(F)F)C(O)C(C)O2)C1)C(=O)c1c(OC)cccc1C3=O (some centres not stated) | 2.91 µM | 
C[C@]12CC[C@H](O)CC1=CC[C@@H]1C2CC[C@]2(C)C(=O)N(N)C(=O)CC12 (some centres not stated) | > 100 µM | 
C=C(CN1CCN(c2ccc(Cl)cc2F)CC1)c1ccc(C(=O)Nc2ccccc2N)cc1 | > 94.2 µM | 1.85 µM
CC(C)=CC(=O)C1c2cccc(O)c2C(=O)c2c(O)cc(C)cc21 (configuration not stated) | 6.39 µM | 
COC(CN1C(=O)c2cccc3cccc(c23)C1=O)OC | > 100 µM | 
O=C1C=C(Cl)C(=O)C(c2ccc(Cl)cc2)=C1 | 38.1 µM | 
Cc1ccc2c(=O)cc(-c3ccc(F)cc3)[nH]c2n1 | > 100 µM | 33.9 µM
CCOc1ccc(NC(=O)C(=O)CC(=O)c2c[n+](=O)c3cc(C)c(C)cc3n2[O-])cc1 | > 100 µM | 
Cn1cc(C2=C(c3cn(C)c4ncccc34)C(=O)NC2=O)c2ccccc21 | > 25 µM | 8.39 µM
O=C1C(Cl)=C(Nc2cccc(Cl)c2)C(=O)N1Cc1ccc(Cl)cc1Cl | 7.57 µM | 0.685 µM
CC(=O)NNc1nc(C)c(C(=O)NNC(=O)C(=O)Nc2ccc(Cl)cc2)s1 | > 100 µM | 
O=C(/C=C/C12c3ccccc3C(c3ccccc31)C1C(=O)NC(=O)C12)c1ccncc1 (configuration not stated) | 4.31 µM | 1.58 µM
CC1(C)CCc2c(c3c(c4c(=O)c(O)c(-c5ccc(O)cc5)oc24)OC(C)(C)CC3)O1 | > 100 µM | 57.6 µM
CC12CCC(O)CC1CCC1C2CCC2(C)C(C3=CC(=O)OC3)CCC12O (configuration not stated) | 4.44 µM | 
CN/N=C(/Cc1occc(=O)c1O)C(=O)Nc1ccccc1C | > 100 µM | 
Cc1coc2c1CC1(C)C(CCC(O)C1C)C2 (configuration not stated) | > 100 µM | 
COc1ccc2c(c1)/C(=C/c1c(C)nc3sc(C)nn13)C(=O)N2 | > 100 µM | 1.77 µM
Cc1cc(I)cc(CN(C)CCCCN2CCCCC2)c1O | 21.1 µM | 8.78 µM
Cc1ccc(C(=O)/C(=C/c2ccc([N+](=O)[O-])cc2)SCc2ccc(Cl)cc2)cc1 | 1.36 µM | 0.317 µM
O=C(Nc1ccc(Cl)c(Cl)c1)Nc1ccc(Cl)c(Cl)c1 | 11 µM and 7.41 µM | 2.85 µM and 2.1 µM
C#Cc1ccc(-n2c(/C=C/c3ccc(C(F)(F)F)cc3)nc3ncccc3c2=O)cc1 | 3.02 µM | 1.63 µM
COc1cc(/C=N/NC(=O)c2ccc(C(F)(F)F)nc2Nc2ccc(Cl)cc2C)ccc1O | 12.7 µM | 2.95 µM
O=C(N/C(=C\c1ccc(/C=C(\NC(=O)c2ccccc2)c2nc3cc([N+](=O)[O-])ccc3[nH]2)cc1)c1nc2cc([N+](=O)[O-])ccc2[nH]1)c1ccccc1 | > 100 µM | 
COc1ccc(C(=O)Cn2c(C(=O)c3ccccc3)nc(-c3ccc(OC)cc3)c2-c2ccc(OC)cc2)cc1 | > 100 µM | > 100 µM
O=C1c2ccccc2C2C1N2C(=O)C(F)(F)F (configuration not stated) | > 100 µM | 
CC1=C(C(=O)NCc2ccccc2)C(/C=C/c2ccccc2)C(C(=O)NCc2ccccc2)=C(C)N1 | > 100 µM | 
CSc1nc2c(c(=O)[nH]1)N=C1c3ccccc3C(=O)C1C(c1ccccc1)N2 (configuration not stated) | > 100 µM | 4.21 µM
CCOC(=O)[C@]1(OC(C)=O)C[C@H](OC(C)=O)[C@@H](C(F)COP(=O)(OCc2ccccc2)OCc2ccccc2)O1 (some centres not stated) | 57.9 µM and > 100 µM | 23.4 µM and > 100 µM

Test system: MALME-3M melanoma
Test: NCI-60 cell line screen, 48 h

SMILES | TGI | GI50
COC1CCC2C(NS(=O)(=O)c3ccc(C)cc3)CCCC2O1 (configuration not stated) (tested in a mixture with another compound) | > 34.5 µM | 
O=C1/C(=C/c2cccc([N+](=O)[O-])c2)COc2ccc(O)cc21 | 6.75 µM | 2.37 µM
CCCCC(=O)OCC(=O)[C@]1(O)Cc2c(O)c3c(c(O)c2[C@@H](OC2CC(NC(=O)C(F)(F)F)C(O)C(C)O2)C1)C(=O)c1c(OC)cccc1C3=O (some centres not stated) | 2.76 µM | 
C[C@]12CC[C@H](O)CC1=CC[C@@H]1C2CC[C@]2(C)C(=O)N(N)C(=O)CC12 (some centres not stated) | > 100 µM | 
C=C(CN1CCN(c2ccc(Cl)cc2F)CC1)c1ccc(C(=O)Nc2ccccc2N)cc1 | > 100 µM | 1.92 µM
CC(C)=CC(=O)C1c2cccc(O)c2C(=O)c2c(O)cc(C)cc21 (configuration not stated) | 7.93 µM | 
COC(CN1C(=O)c2cccc3cccc(c23)C1=O)OC | > 100 µM | 
O=C1C=C(Cl)C(=O)C(c2ccc(Cl)cc2)=C1 | 39 µM | 
Cc1ccc2c(=O)cc(-c3ccc(F)cc3)[nH]c2n1 | > 100 µM | 
CCOc1ccc(NC(=O)C(=O)CC(=O)c2c[n+](=O)c3cc(C)c(C)cc3n2[O-])cc1 | > 100 µM | 
Cn1cc(C2=C(c3cn(C)c4ncccc34)C(=O)NC2=O)c2ccccc21 | 20 µM | 8.5 µM
O=C1C(Cl)=C(Nc2cccc(Cl)c2)C(=O)N1Cc1ccc(Cl)cc1Cl | 19 µM | 4.17 µM
CC(=O)NNc1nc(C)c(C(=O)NNC(=O)C(=O)Nc2ccc(Cl)cc2)s1 | > 100 µM | 
O=C(/C=C/C12c3ccccc3C(c3ccccc31)C1C(=O)NC(=O)C12)c1ccncc1 (configuration not stated) | 12.2 µM | 3.16 µM
CC1(C)CCc2c(c3c(c4c(=O)c(O)c(-c5ccc(O)cc5)oc24)OC(C)(C)CC3)O1 | > 100 µM | > 100 µM
CC12CCC(O)CC1CCC1C2CCC2(C)C(C3=CC(=O)OC3)CCC12O (configuration not stated) | 4.89 µM | 
CN/N=C(/Cc1occc(=O)c1O)C(=O)Nc1ccccc1C | > 100 µM | 
Cc1coc2c1CC1(C)C(CCC(O)C1C)C2 (configuration not stated) | > 100 µM | 
COc1ccc2c(c1)/C(=C/c1c(C)nc3sc(C)nn13)C(=O)N2 | > 100 µM | 
Cc1cc(I)cc(CN(C)CCCCN2CCCCC2)c1O | 28 µM | 12.7 µM
Cc1ccc(C(=O)/C(=C/c2ccc([N+](=O)[O-])cc2)SCc2ccc(Cl)cc2)cc1 | 19.2 µM | 4.34 µM
O=C(Nc1ccc(Cl)c(Cl)c1)Nc1ccc(Cl)c(Cl)c1 | 5.95 µM and 6.58 µM | 2.22 µM and 2.44 µM
C#Cc1ccc(-n2c(/C=C/c3ccc(C(F)(F)F)cc3)nc3ncccc3c2=O)cc1 | 3.57 µM | 1.64 µM
COc1cc(/C=N/NC(=O)c2ccc(C(F)(F)F)nc2Nc2ccc(Cl)cc2C)ccc1O | 10.9 µM | 2.19 µM
O=C(N/C(=C\c1ccc(/C=C(\NC(=O)c2ccccc2)c2nc3cc([N+](=O)[O-])ccc3[nH]2)cc1)c1nc2cc([N+](=O)[O-])ccc2[nH]1)c1ccccc1 | > 100 µM | 
COc1ccc(C(=O)Cn2c(C(=O)c3ccccc3)nc(-c3ccc(OC)cc3)c2-c2ccc(OC)cc2)cc1 | > 100 µM | > 100 µM
O=C1c2ccccc2C2C1N2C(=O)C(F)(F)F (configuration not stated) | > 100 µM | 
CC1=C(C(=O)NCc2ccccc2)C(/C=C/c2ccccc2)C(C(=O)NCc2ccccc2)=C(C)N1 | > 100 µM | 
CSc1nc2c(c(=O)[nH]1)N=C1c3ccccc3C(=O)C1C(c1ccccc1)N2 (configuration not stated) | > 100 µM | 2.33 µM
CCOC(=O)[C@]1(OC(C)=O)C[C@H](OC(C)=O)[C@@H](C(F)COP(=O)(OCc2ccccc2)OCc2ccccc2)O1 (some centres not stated) | 33.8 µM and > 100 µM | 13.9 µM and > 100 µM
